According to patent publication US11234997B2, “Antibacterial activity of galactooligosaccharide and xylitol in dermatological treatments” (ROTTAPHARM SPA, priority 2017, dated 2022):

What was measured:
[1] = test system: S. epidermidis 317 (clinical strain); experiment: Biofilm phase reduction (safranin staining, OD492); format: cell-based, Staphylococcus epidermidis; conditions: GOS 0%; for percentage of biofilm reduction (anti-adhesive): 3 h; for percentage of biofilm reduction (anti-biofilm): 24 h
Method: (§1) Galactooligosaccharide and xylitol were evaluated alone and in combination at different concentrations (concentrations: 0, 1, 2.5 and 5%) to affect bacterial planktonic production and biofilm-forming ability of standardized broth cultures of S. aureus 815 (clinical strain) and S. epidermidis 317 (clinical strain) was assessed. Bacterial suspensions grown in TSB supplemented with 0.5% (v/v) glucose at logarithmic phase, were incubated on 96 flat-bottomed microliter plates in the presence of galactooligosaccharide or xylitol or their combination at different concentrations or TSB (control). After incubation for 3 h and 24 h at 37° C., each well was washed twice with sterile PBS, air-dried, stained for 1 min with 0.1% safranin, and washed with PBS. The stained biofilm were re-suspended in 200 μl ethanol (95% v/v), and OD492 was measured by spectrophotometry using an ELISA reader. Table 4 outlines the percentage of biofilm reduction (anti-adhesive (3 h) and anti-biofilm (24 h)) of S. aureus 815 and S. epidermidis 317 in the presence of galactooligosaccharide, xylitol and their combinations at different concentrations.

[2] = test system: S. aureus 815 (clinical strain); experiment: Biofilm phase reduction (safranin staining, OD492); format: cell-based, Staphylococcus aureus; conditions: GOS 0%; for percentage of biofilm reduction (anti-adhesive): 3 h; for percentage of biofilm reduction (anti-biofilm): 24 h
Method: as §1

[3] = test system: S. epidermidis 317 (clinical strain); experiment: Planktonic phase growth reduction (OD600); format: cell-based, Staphylococcus epidermidis; conditions: GOS 0%
Method: (§2) Galactooligosaccharide and xylitol were evaluated alone and in combination at different concentrations (concentrations: 0, 1, 2.5 and 5%) to affect bacterial planktonic production and biofilm-forming ability of standardized broth cultures of S. aureus 815 (clinical strain) and S. epidermidis 317 (clinical strain) was assessed. Different concentrations of galactooligosaccharide, xylitol and their combination, were added to a 96 well plate to evaluate their in vitro effect on S. aureus and S. epidermidis bacterial planktonic population. The overnight bacterial inocula were prepared in Tryptic soy broth (TSB), refreshed in the same medium and adjusted to OD600=0.12 (approximately 5×10^6 CFU/ml) for the experiments. For the controls, galactooligosaccharide and xylitol were also assayed alone. The plates were incubated for t=3, and 6 h at 37° C. in aerobic conditions. Each determination was performed in duplicate for three independent experiments and the biomass was evaluated using a safranin staining method. After each time of incubation, the reduction of the OD600 was evaluated in respect to the controls and the colony forming units (CFU)/ml at 0 and 24 h were detected. Table 3 outlines the percentage reduction of S. aureus 815 and S. epidermidis 317 growth in planktonic phase in the presence of galactooligosaccharide, xylitol and their combinations at different concentrations (OD600) after 3 and 6 h.

[4] = test system: S. aureus 815 (clinical strain); experiment: Planktonic phase growth reduction (OD600); format: cell-based, Staphylococcus aureus; conditions: GOS 0%
Method: as §2

Compound: OC[C@@H](O)[C@H](O)[C@@H](O)CO [Xylitol, xylitol]
- percentage of biofilm reduction (anti-adhesive) ([1]; xylitol 1%): 1.00%
- percentage of biofilm reduction (anti-biofilm) ([1]; xylitol 1%): 22.81%
- percentage of biofilm reduction (anti-adhesive) ([1]; xylitol 2.5%): 10.64%
- percentage of biofilm reduction (anti-biofilm) ([1]; xylitol 2.5%): 22.18%
- percentage of biofilm reduction (anti-adhesive) ([1]; xylitol 5%): 14.16%
- percentage of biofilm reduction (anti-biofilm) ([1]; xylitol 5%): 5.67%
- percentage of biofilm reduction (anti-adhesive) ([2]; xylitol 1%): 21.61%
- percentage of biofilm reduction (anti-biofilm) ([2]; xylitol 1%): 51.68%
- percentage of biofilm reduction (anti-adhesive) ([2]; xylitol 2.5%): 28.81%
- percentage of biofilm reduction (anti-biofilm) ([2]; xylitol 2.5%): 47.8%
- percentage of biofilm reduction (anti-adhesive) ([2]; xylitol 5%): 36.98%
- percentage of biofilm reduction (anti-biofilm) ([2]; xylitol 5%): 56.02%
- percentage reduction of growth in planktonic phase (OD600) ([3]; xylitol 1%, 3 h): 13.40%
- percentage reduction of growth in planktonic phase (OD600) ([3]; xylitol 1%, 6 h): 22.11%
- percentage reduction of growth in planktonic phase (OD600) ([3]; xylitol 2.5%, 3 h): 19.36%
- percentage reduction of growth in planktonic phase (OD600) ([3]; xylitol 2.5%, 6 h): 28.57%
- percentage reduction of growth in planktonic phase (OD600) ([3]; xylitol 5%, 3 h): 27.13%
- percentage reduction of growth in planktonic phase (OD600) ([3]; xylitol 5%, 6 h): 29.99%
- percentage reduction of growth in planktonic phase (OD600) ([4]; xylitol 1%, 3 h): 14.38%
- percentage reduction of growth in planktonic phase (OD600) ([4]; xylitol 1%, 6 h): 15.86%
- percentage reduction of growth in planktonic phase (OD600) ([4]; xylitol 2.5%, 3 h): 23.93%
- percentage reduction of growth in planktonic phase (OD600) ([4]; xylitol 2.5%, 6 h): 27.80%
- percentage reduction of growth in planktonic phase (OD600) ([4]; xylitol 5%, 3 h): 26.70%
- percentage reduction of growth in planktonic phase (OD600) ([4]; xylitol 5%, 6 h): 35.13%
